# In patent publication US9770503B2, “Immunomodulating compositions and uses therefor” (CANCURE LIMITED ACN 164 438 359, priority 2003, dated 2017):
# Test system: splenic lymphocytes cultured with C57bl6J derived B16F10 melanoma cells
# Test: Mixed lymphocyte culture (MLC) screening assay, melanoma cells as stimulators
# Type: cell-based, mice
# Conditions: 3 days of growth; FIG. 4
# From the text: The inventor has established a rapid screening assay for analysing the immune-enhancing activities of various lectin-interactive agents. The assay is based on the ability to grow lymphocytes derived from the spleens of vaccinated mice in mixed lymphocyte culture (MLC) in the presence or absence of the agents. The theory behind this approach is that tumour cells secrete galectins which then kill the T lymphocytes.
# Tumour cells, either NeuD12 FVB/N 202 breast cancer cells or C57bl6J derived B16F10 melanoma cells were used as stimulators and target cells for the assays. The tumour cells used as stimulators in the MLC were prepared as outlined in WO 01/88097 to express high levels of B7 antigen and were treated with interferon γ (1000 IU/mL) for 24 h before addition of interferon β (1000 IU/mL) for a further 24-48 h. The tumour cells were grown in 35 mm diameter×6 well cell culture dishes at about 1.5×10^6 cells per well. The tumour cells, after IFN treatment, were incubated with the growth arresting drug, mitomycin C for 20-25 min in situ in the 6-well culture dishes before it was removed by washing with PBS or fresh media three times and resuspension in 4 mL of fresh complete RPMI media/10% FCS.
# Lymphocytes were extracted from the spleen of vaccinated mice and passed through a 100-200 μm stainless steel mesh sieve into 5-10 mL complete RPMI media. The red blood cells were removed by centrifugation on lymphoprep and the white blood cell layer at the interface between the culture media phase and ficoll/Hypaque phase was harvested and the ficoll/Hypaque removed by washing. […] After 2-3 days, or as required (assessed by the colour of the media pH indicator change), half the media was carefully aspirated away from each well and replaced with fresh complete media with or without added lectin-interacting agent (e.g., a carbohydrate as disclosed for instance herein generally at about 0.1 mM to about 10 mM final concentration, typically at about 1 mM). […]
row,Structure (SMILES),proliferation of lymphocytes in a melanoma-specific MLC
1,OC[C@@H](O)[C@@H](O[C@@H]1O[C@H](CO)[C@H](O)[C@H](O)[C@H]1O)[C@H](O)[C@@H](O)CO [D-lactitol monohydrate],promoting the proliferation of lymphocytes
2,OC[C@H]1O[C@@H](O[C@H]2[C@H](O)[C@@H](O)[C@H](OCc3ccccc3)O[C@@H]2CO)[C@H](O)[C@@H](O)[C@H]1O [benzyl 4-O-β-D-galactopyranosyl-β-D-glucopyranoside],promoting the proliferation of lymphocytes
3,OC[C@H]1O[C@@H](O[C@@H]2[C@@H](CO)OC(O)(CO)[C@H]2O)[C@H](O)[C@@H](O)[C@H]1O (mixture of isomers) [lactulose],promoting the proliferation of lymphocytes
